# Reference: PubChem BioAssay AID2060510 (Molecular Pharmacology Branch, DTP, NCI, 2025)
# Test system: 439559-082-T-J2-PDC spheroids viability
# Experiment: Anticancer human tumor 439559-082-T-J2-PDC patient-derived colon adenocarcinoma cell line growth inhibition [GQUAD]
# Details: for IC50: curve of first compound; for viability, T/C: stronger effect = lower value
# Summary of the method: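 Tumor cells were grown as complex spheroids with HUVEC endothelial cells and mesenchymal stem cells as stroma. G-quadruplex stabilizers were combined with targeted agents over half-log dilutions from near the clinical Cmax, or from 10 microM.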
# [1] = second compound 0.0316 µM, first compound 0.0316 µM
# [2] = second compound 0.0316 µM, first compound 0.1 µM
# [3] = second compound 0.0316 µM, first compound 0.316 µM
# [4] = second compound 0.0316 µM, first compound 1 µM
# [5] = second compound 0.0316 µM, first compound 3.16 µM
# [6] = second compound 0.0316 µM, first compound 10 µM
# [7] = second compound 0.1 µM, first compound 0.0316 µM
# [8] = second compound 0.1 µM, first compound 0.1 µM
# [9] = second compound 0.1 µM, first compound 0.316 µM
# [10] = second compound 0.1 µM, first compound 1 µM
# [11] = second compound 0.1 µM, first compound 3.16 µM
# [12] = second compound 0.1 µM, first compound 10 µM
# [13] = second compound 0.316 µM, first compound 0.0316 µM
# [14] = second compound 0.316 µM, first compound 0.1 µM
# [15] = second compound 0.316 µM, first compound 0.316 µM
# [16] = second compound 0.316 µM, first compound 1 µM
# [17] = second compound 0.316 µM, first compound 3.16 µM
# [18] = second compound 0.316 µM, first compound 10 µM
# [19] = second compound 1 µM, first compound 0.0316 µM
# [20] = second compound 1 µM, first compound 0.1 µM
# [21] = second compound 1 µM, first compound 0.316 µM
# [22] = second compound 1 µM, first compound 1 µM
# [23] = second compound 1 µM, first compound 3.16 µM
# [24] = second compound 1 µM, first compound 10 µM
# [25] = second compound 3.16 µM, first compound 0.0316 µM
# [26] = second compound 3.16 µM, first compound 0.1 µM
# [27] = second compound 3.16 µM, first compound 0.316 µM
# [28] = second compound 3.16 µM, first compound 1 µM
# [29] = second compound 3.16 µM, first compound 3.16 µM
# [30] = second compound 3.16 µM, first compound 10 µM
# [31] = second compound 10 µM, first compound 0.0316 µM
# [32] = second compound 10 µM, first compound 0.1 µM
# [33] = second compound 10 µM, first compound 0.316 µM
# [34] = second compound 10 µM, first compound 1 µM
# [35] = second compound 10 µM, first compound 3.16 µM
# [36] = second compound 10 µM, first compound 10 µM
# 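Note: spheroids exposed to the agents for 7 days before readout.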
# 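Throughout, for viability, T/C: percent of luminescence signal in DMSO vehicle wells taken as 100% viability.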
compound,measurement,setting,value
C#Cc1c(F)ccc2cc(O)cc(-c3ncc4c(N5CC6CCC(C5)N6)nc(OCC56CCCN5CC(F)C6)nc4c3F)c12 (stereo unspecified) + CN(C)c1ccc(Nc2c3ccc(NC(=O)CCN4CCCC4)cc3nc3cc(NC(=O)CCN4CCCC4)ccc23)cc1,IC50,second compound 0.0316 µM,> 10 µM
same,IC50,second compound 0.1 µM,3.88 µM
same,IC50,second compound 0.316 µM,6.88 µM
same,IC50,second compound 1 µM,> 10 µM
same,IC50,second compound 3.16 µM,3.74 µM
same,IC50,second compound 10 µM,3.18 µM
same,"viability, T/C",[1],83.6%
same,"viability, T/C",[2],70.7%
same,"viability, T/C",[3],66%
same,"viability, T/C",[4],60.1%
same,"viability, T/C",[5],56.1%
same,"viability, T/C",[6],49.1%
same,"viability, T/C",[7],94%
same,"viability, T/C",[8],68.5%
same,"viability, T/C",[9],73.1%
same,"viability, T/C",[10],58.1%
same,"viability, T/C",[11],54%
same,"viability, T/C",[12],42.6%
same,"viability, T/C",[13],79.3%
same,"viability, T/C",[14],82.8%
same,"viability, T/C",[15],62.2%
same,"viability, T/C",[16],62%
same,"viability, T/C",[17],55.5%
same,"viability, T/C",[18],47.6%
same,"viability, T/C",[19],91.5%
same,"viability, T/C",[20],73.2%
same,"viability, T/C",[21],64.6%
same,"viability, T/C",[22],55.4%
same,"viability, T/C",[23],61.8%
same,"viability, T/C",[24],48.5%
same,"viability, T/C",[25],81.9%
same,"viability, T/C",[26],75.3%
same,"viability, T/C",[27],69.1%
same,"viability, T/C",[28],52.4%
same,"viability, T/C",[29],55.2%
same,"viability, T/C",[30],43.4%
same,"viability, T/C",[31],84.4%
same,"viability, T/C",[32],77.7%
same,"viability, T/C",[33],62.5%
same,"viability, T/C",[34],54.7%
same,"viability, T/C",[35],56.4%
same,"viability, T/C",[36],40.7%
CC(=O)O[C@H]1C(=O)[C@@]2(C)[C@H]([C@H](OC(=O)c3ccccc3)[C@]3(O)C[C@H](OC(=O)[C@H](O)[C@@H](NC(=O)c4ccccc4)c4ccccc4)C(C)=C1C3(C)C)[C@]1(OC(C)=O)CO[C@@H]1C[C@@H]2O + CN(C)c1ccc(Nc2c3ccc(NC(=O)CCN4CCCC4)cc3nc3cc(NC(=O)CCN4CCCC4)ccc23)cc1,IC50,second compound 0.0316 µM,2.03 µM
same,IC50,second compound 0.1 µM,1.83 µM
same,IC50,second compound 0.316 µM,2.04 µM
same,IC50,second compound 1 µM,1.79 µM
same,IC50,second compound 3.16 µM,2.18 µM
same,IC50,second compound 10 µM,1.36 µM
same,"viability, T/C",[1],84.8%
same,"viability, T/C",[2],77.7%
same,"viability, T/C",[3],74.5%
same,"viability, T/C",[4],62.8%
same,"viability, T/C",[5],41.7%
same,"viability, T/C",[6],29.9%
same,"viability, T/C",[7],85.1%
same,"viability, T/C",[8],83.7%
same,"viability, T/C",[9],74.2%
same,"viability, T/C",[10],60.9%
same,"viability, T/C",[11],40.3%
same,"viability, T/C",[12],31.6%
same,"viability, T/C",[13],84%
same,"viability, T/C",[14],82.3%
same,"viability, T/C",[15],69.7%
same,"viability, T/C",[16],60.4%
same,"viability, T/C",[17],44%
same,"viability, T/C",[18],30.7%
same,"viability, T/C",[19],76.2%
same,"viability, T/C",[20],82.9%
same,"viability, T/C",[21],70%
same,"viability, T/C",[22],64%
same,"viability, T/C",[23],36.9%
same,"viability, T/C",[24],28.9%
same,"viability, T/C",[25],82.1%
same,"viability, T/C",[26],84.6%
same,"viability, T/C",[27],78.9%
same,"viability, T/C",[28],65.8%
same,"viability, T/C",[29],42.5%
same,"viability, T/C",[30],26.7%
same,"viability, T/C",[31],73.5%
same,"viability, T/C",[32],73.9%
same,"viability, T/C",[33],86.2%
same,"viability, T/C",[34],56.6%
same,"viability, T/C",[35],36.7%
same,"viability, T/C",[36],27%
CCCS(=O)(=O)Nc1ccc(F)c(C(=O)c2c[nH]c3ncc(-c4ccc(Cl)cc4)cc23)c1F + CN(C)c1ccc(Nc2c3ccc(NC(=O)CCN4CCCC4)cc3nc3cc(NC(=O)CCN4CCCC4)ccc23)cc1,IC50,second compound 0.0316 µM,> 10 µM
same,IC50,second compound 0.1 µM,> 10 µM
same,IC50,second compound 0.316 µM,9.61 µM
same,IC50,second compound 1 µM,> 10 µM
same,IC50,second compound 3.16 µM,9.15 µM
same,IC50,second compound 10 µM,> 10 µM
same,"viability, T/C",[1],118%
same,"viability, T/C",[2],93.8%
same,"viability, T/C",[3],100%
same,"viability, T/C",[4],92.4%
same,"viability, T/C",[5],116%
same,"viability, T/C",[6],59.5%
same,"viability, T/C",[7],90.5%
same,"viability, T/C",[8],101%
same,"viability, T/C",[9],96.7%
same,"viability, T/C",[10],87.9%
same,"viability, T/C",[11],103%
same,"viability, T/C",[12],50.1%
same,"viability, T/C",[13],98.4%
same,"viability, T/C",[14],102%
same,"viability, T/C",[15],94.1%
same,"viability, T/C",[16],102%
same,"viability, T/C",[17],113%
same,"viability, T/C",[18],48.1%
same,"viability, T/C",[19],91.9%
same,"viability, T/C",[20],108%
same,"viability, T/C",[21],103%
same,"viability, T/C",[22],108%
same,"viability, T/C",[23],107%
same,"viability, T/C",[24],54.2%
same,"viability, T/C",[25],96%
same,"viability, T/C",[26],101%
same,"viability, T/C",[27],108%
same,"viability, T/C",[28],101%
same,"viability, T/C",[29],112%
same,"viability, T/C",[30],45.5%
same,"viability, T/C",[31],90.9%
same,"viability, T/C",[32],103%
same,"viability, T/C",[33],99.8%
same,"viability, T/C",[34],105%
same,"viability, T/C",[35],108%
same,"viability, T/C",[36],50.5%
